Measurements reported in patent US8592403B2, “Diazepine and diazocane compounds as MC4 agonists” (Pfizer Limited, priority 2008, dated 2013).

Columns and labels:
MC4 receptor = MC4 receptor (Homo sapiens, UniProt P32245); test: MC4 EC50 functional potency (protocol E of US2005/0176772 / WO 2005/077935); type: cell-based
Protocol: The compounds of formula (I) of the present invention have utility as MCR4 agonists in the treatment of various disease states.
MC5 and MC4 EC50 activity was determined as described by assay protocols D and E, respectively, in US2005/0176772 (pages 28-30).

[1] = In vitro metabolism rate determination, human liver microsome (HLM) assay; type: in vitro ADME; conditions: human, liver microsomes, read-out: HLM: Clint, app
From the text: In Vitro Metabolism Rate Determination (Human Liver Microsome (HLM); Rat Liver Microsome (RLM) Assay)
Many drugs are metabolised by the cytochrome P450 mono-oxygenase system. This enzyme is found in high concentrations in the liver and is bound to the endoplasmic reticulum of the hepatocyte. The enzyme system can be obtained in semi-purified state by the preparation of the hepatic microsomal fractions. Determining a compound's in vitro half-life in such a system provides a useful indicator of metabolic stability.
Methodology for In Vitro Rate Determination Using Hepatic & Supermix Microsomes
The method outlined below is for a total incubation volume of 1.5 ml.
1. The following mixture is prepared in a test tube:
2. Defrost microsomes at room temperature and add sufficient microsomes to give a final concentration of 0.5 nmol cytochrome P450/ml of incubation e.g. for a 1.5 ml incubation, the volume of microsomes to be added is:
3. Add sufficient MilliQ water to give a total incubation volume of 1.425 ml.
6. Add substrate to the incubation. The substrate should be at an initial concentration of 1 μM. The volume of substrate required in the remaining 1.162.5 ml incubation is calculated as follows: […]
8. Pre-incubate the tube containing the incubation mix, also positive control and no cofactor tubes in the thermostatically controlled shaking water bath set at 37° C. for approx 5 min.
9. Add NADP to initiate reaction (75 μl to each 1.162.5 ml incubation mix, 12.5 μl to positive control tube and 5 μl to no substrate tube) and take first time point immediately. The PNA positive control, no cofactor control and no substrate tubes are incubated for the total incubation time.
10. Remove 100 μl aliquots up to 9 different sampling points from 0 to 60 min (usually 0, 3, 5, 10, 15, 20, 30, 45 & 60 min) and terminate reaction. Longer incubation times can be used, but, after 120 min the microsomes deteriorate. The reaction may be terminated by addition of organic solvent, acid or base. At the end of the incubation process the no cofactor and no substrate controls in a similar manner i.e. terminate with the same reagent.
11. Analyse samples (including no cofactor and no substrate control) by a specific assay for the substrate to determine the disappearance kinetics.
Data obtained using the procedure described above can be quantified in terms of the substrates in vitro intrinsic clearance (Clint). Providing that the substrate concentration is below Km, the metabolism should be 1st order giving a log-linear plot of substrate disappearance with time.
The gradient of this line is the first order rate constant (k) for the substrate disappearance and is determined by regression analysis. This rate constant can be converted to the half-life according to the following equation.
Alternatively the rate constant can be converted to an intrinsic clearance (Clint) according to the following equation:— Clint(μl/min/mg)=(k/protein concentration in incubation (mg/ml))*1000

CYP3A4 = biological target: T1, CYP3A4 (Homo sapiens, UniProt P08684); test: High density DDI 3 μM cocktail screen in human liver microsomes, midazolam probe; type: in vitro ADME; conditions: human, liver microsomes, probe midazolam, read-out: % inhibition 3A4 @ 3 μM
T1 construct: utilizes human liver microsomes together with isoform-specific clinical drug probes; from tissue; host or cells: human liver microsomes
T1 sequence (P08684 whole entry, canonical isoform): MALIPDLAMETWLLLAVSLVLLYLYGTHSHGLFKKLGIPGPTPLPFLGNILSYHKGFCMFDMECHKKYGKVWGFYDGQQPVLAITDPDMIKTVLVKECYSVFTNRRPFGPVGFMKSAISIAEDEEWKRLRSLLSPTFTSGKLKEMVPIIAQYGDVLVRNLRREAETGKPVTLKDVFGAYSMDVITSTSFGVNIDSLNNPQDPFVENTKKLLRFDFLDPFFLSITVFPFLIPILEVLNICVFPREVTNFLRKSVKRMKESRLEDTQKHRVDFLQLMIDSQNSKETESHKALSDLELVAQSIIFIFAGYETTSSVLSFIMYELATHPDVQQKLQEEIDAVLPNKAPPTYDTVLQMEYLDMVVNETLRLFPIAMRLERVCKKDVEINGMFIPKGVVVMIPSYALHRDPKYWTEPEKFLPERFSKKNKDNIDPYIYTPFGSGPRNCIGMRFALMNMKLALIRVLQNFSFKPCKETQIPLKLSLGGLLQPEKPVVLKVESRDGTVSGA
Protocol: High Density Drug-Drug Interactions (DDI) 3 μM Cocktail Screen
A drug interaction is a situation in which a substance affects the activity of another drug, i.e. the effects are increased or decreased, or together they produce a new effect that neither produces on its own. Drug interactions may be the result of various processes but a relatively common one is where one drug affects the pharmacokinetics of another by inhibiting the cytochrome P450 that metabolises it. Because of the importance of these phenomena, assessment of the DDI potential for new chemical entities (NCEs) is considered important early on in the drug discovery process.
The DDI cocktail screen in human liver microsomes (HLM) is run in a fully automated fashion and the aim of the screen is to provide a single-point assessment of the DDI potential of new chemical entity (NCE; tested at […]) against the 4 primary cytochrome P450 enzymes, 1A2, 2D6, 2C9 and 3A4.
The substrate cocktail approach for P450 DDI utilizes human liver microsomes together with isoform-specific clinical drug probes and permits the simultaneous measurement of the inhibition of P450 1A2, 2C9, 2D6 & 3A4 activities in a single incubation. This is run in high throughput with simultaneous detection of metabolites by LC-MS/MS. This method has been thoroughly tested and evaluated using standard compounds.
Appearance of the metabolite of each substrate is measured over time in the presence and absence of the NCE (test compound/inhibitor) at a concentration of 3 μM. The compounds are assessed for their inhibitory potential as a percentage value and interpreted using the following scheme.

Chain of MC4 receptor (P32245 whole entry): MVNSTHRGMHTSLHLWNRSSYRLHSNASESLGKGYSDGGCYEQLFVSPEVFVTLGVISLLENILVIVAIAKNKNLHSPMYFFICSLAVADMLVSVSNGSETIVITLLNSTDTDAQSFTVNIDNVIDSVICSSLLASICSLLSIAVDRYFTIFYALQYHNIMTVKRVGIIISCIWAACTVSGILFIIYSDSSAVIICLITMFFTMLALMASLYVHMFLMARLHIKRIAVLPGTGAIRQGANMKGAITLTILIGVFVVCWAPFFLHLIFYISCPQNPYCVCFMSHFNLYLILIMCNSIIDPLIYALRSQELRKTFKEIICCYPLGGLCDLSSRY

| Structure (SMILES) | EC50 (MC4 receptor) | microsomal CLint at 1 μM [1] | inhibition at 3 µM (CYP3A4) |
| --- | --- | --- | --- |
| CC(=O)N1CCN(C(=O)[C@@H]2CN(C(C)(C)C)C[C@H]2c2ccc(F)cc2F)CCC1c1ccc(F)cc1F (mixture of isomers) [Example 18] | 152 nM | 34 µL/min/mg | 24.2% |
| CC(C)(C)N1C[C@@H](C(=O)N2CCC(c3ccc(F)cc3F)N(S(C)(=O)=O)CC2)[C@H](c2ccc(F)cc2F)C1 (mixture of isomers) [Example 43] | 397 nM | 52 µL/min/mg |  |
| COC(=O)N1CCN(C(=O)[C@@H]2CN(C(C)(C)C)C[C@H]2c2ccc(F)cc2F)CCC1c1ccc(F)cc1F (mixture of isomers) [Example 54] | 44.8 nM | 32.8 µL/min/mg |  |
| CS(=O)(=O)N1CCN(C(=O)[C@@H]2CN(c3ccc(C#N)nn3)C[C@H]2c2ccc(F)cc2F)CCCC1c1ccc(F)cc1 (mixture of isomers) [Example 77] | 54.6 nM | 43 µL/min/mg | 56.5% |
| CC(=O)N1CCN(C(=O)[C@@H]2CN(C(C)(C)C)C[C@H]2c2ccc(F)cc2F)CCC1c1ccc(Cl)cc1 (mixture of isomers) [Example 84] | 206 nM | 27.9 µL/min/mg |  |
| CC(C)(C)N1C[C@@H](C(=O)N2CCC(c3ccc(Cl)cc3)N(S(C)(=O)=O)CC2)[C@H](c2ccc(F)cc2F)C1 (mixture of isomers) [Example 85] | 404 nM | 48.4 µL/min/mg | 30.5% |
| COC(=O)N1CCN(C(=O)[C@@H]2CN(C(C)(C)C)C[C@H]2c2ccc(F)cc2F)CCC1c1ccc(Cl)cc1 (mixture of isomers) [Example 86] | 97.2 nM | 29.6 µL/min/mg | 20.3% |
| CCC(=O)N1CCN(C(=O)[C@@H]2CN(C(C)(C)C)C[C@H]2c2ccc(Cl)cn2)CCC[C@H]1c1ccc(Cl)cc1 [Example 19] | 64.8 nM | 62.6 µL/min/mg | 41% |
| COc1ccc([C@@H]2CN(c3ccc(C#N)nn3)C[C@H]2C(=O)N2CCC[C@@H](c3ccc(Cl)cc3)N(C(=O)C3CC3)CC2)c(F)c1 [Example 23] | 4.31 nM | 29.1 µL/min/mg | 56.2% |
| COc1ccc([C@@H]2CN(c3ccc(C#N)nn3)C[C@H]2C(=O)N2CCC[C@@H](c3ccc(Cl)cc3)N(C(=O)C(C)C)CC2)c(F)c1 [Example 24] | 2.27 nM | 37.3 µL/min/mg | 43.4% |
| COc1ccc([C@@H]2CN(c3ccc(C#N)nn3)C[C@H]2C(=O)N2CCC[C@@H](c3ccc(Cl)cc3)N(C(=O)CC(F)(F)F)CC2)c(F)c1 [Example 26] | 8.31 nM | 30.2 µL/min/mg | 20.4% |
| CC(=O)N1CCN(C(=O)[C@@H]2CN(c3ccc(=O)n(C)n3)C[C@H]2c2ccc(Cl)cn2)CCC[C@H]1c1ccc(Cl)cc1 [Example 36] | 7.67 nM |  |  |
| CCC(=O)N1CCN(C(=O)[C@@H]2CN(c3ccc(=O)n(C)n3)C[C@H]2c2ccc(Cl)cn2)CCC[C@H]1c1ccc(Cl)cc1 [Example 38] | 6.9 nM |  |  |
| CCOC(=O)N1CCN(C(=O)[C@@H]2CN(C(C)(C)C)C[C@H]2c2ccc(F)cc2F)CCC[C@H]1c1ccc(Cl)cc1 [Example 52] | 35.2 nM |  | 0% |
| N#Cc1ccc(N2C[C@@H](C(=O)N3CCC[C@@H](c4ccc(Cl)cc4)N(C(=O)CC(F)(F)F)CC3)[C@H](c3ccc(F)cc3F)C2)nn1 [Example 58] | 22.1 nM |  | 46.5% |
| CC(C)(C)N1C[C@@H](C(=O)N2CCC[C@@H](c3ccc(Cl)cc3)N(C(=O)C3N=CC=N3)CC2)[C@H](c2ccc(F)cc2F)C1 [Example 64] | 247 nM |  |  |
| COC(=O)N1CCN(C(=O)C2CN(c3ccc(C#N)nn3)C[C@H]2c2ccc(OC)cc2F)CCC[C@@H]1c1ccc(Cl)cc1 (stereo partly shown) [Example 88] |  | 40.1 µL/min/mg | 21.5% |
| COC(=O)N1CCN(C(=O)C2CN(c3ccc(C#N)nn3)CC2c2ccc(OC)cc2F)CCC[C@H]1c1ccc(Cl)cc1 (stereo partly shown) [Example 89] |  | 42.9 µL/min/mg | 28.5% |

Results, then the compound that gave them:

| EC50 (MC4 receptor) | microsomal CLint at 1 μM [1] | inhibition at 3 µM (CYP3A4) | Structure (SMILES) |
| --- | --- | --- | --- |
|  |  | 35.1% | CC(=O)N1CCN(C(=O)C2CN(c3ccc(C#N)nn3)C[C@H]2c2ccc(F)cc2F)CCC[C@H]1c1ccc(Cl)cc1 (stereo partly shown) [Example 21] |
| 9.42 nM |  |  | CC(=O)N1CCN(C(=O)[C@@H]2CN(c3ccc(C#N)nn3)C[C@H]2c2ccc(F)cc2F)CCC[C@H]1c1ccc(Cl)cc1 [Example 21] |
| 5.25 nM |  | 59.2% | CC(C)C(=O)N1CCN(C(=O)[C@@H]2CN(c3ccc(C#N)nn3)C[C@H]2c2ccc(F)cc2F)CCC[C@H]1c1ccc(Cl)cc1 [Example 22] |
| 5.02 nM | 20.4 µL/min/mg | 25.7% | COc1ccc([C@@H]2CN(c3ccc(=O)n(C)n3)C[C@H]2C(=O)N2CCC[C@@H](c3ccc(Cl)cc3)N(C(C)=O)CC2)c(F)c1 [Example 27] |
| 3.4 nM | 21.5 µL/min/mg | 40.8% | CCC(=O)N1CCN(C(=O)[C@@H]2CN(c3ccc(=O)n(C)n3)C[C@H]2c2ccc(OC)cc2F)CCC[C@H]1c1ccc(Cl)cc1 [Example 28] |
| 6.01 nM | 18.2 µL/min/mg | 36.8% | COc1ccc([C@@H]2CN(c3ccc(=O)n(C)n3)C[C@H]2C(=O)N2CCC[C@@H](c3ccc(Cl)cc3)N(C(=O)CC(F)(F)F)CC2)c(F)c1 [Example 30, 6-[(3S,4R)-3-{[5S-(4-chlorophenyl)-4-(3,3,3-trifluoropropanoyl)-1,4-diazocan-1-yl]carbonyl}-4-(2-fluoro-4-methoxyphenyl)pyrrolidin-1-yl]-2-methylpyridazin-3(2H)-one] |
| 6.63 nM | 14.8 µL/min/mg |  | CC(=O)N1CCN(C(=O)[C@@H]2CN(c3ccc(=O)n(C)n3)C[C@H]2c2ccc(F)cc2F)CCC[C@H]1c1ccc(Cl)cc1 [Example 32] |
| 3.5 nM | 17 µL/min/mg | 45.2% | CC(C)C(=O)N1CCN(C(=O)[C@@H]2CN(c3ccc(=O)n(C)n3)C[C@H]2c2ccc(F)cc2F)CCC[C@H]1c1ccc(Cl)cc1 [Example 33, 6-[(3S,4R)-3-{[5S-(4-chlorophenyl)-4-isobutyryl-1,4-diazocan-1-yl]carbonyl}-4-(2,4-difluorophenyl)pyrrolidin-1-yl]-2-methylpyridazin-3(2H)-one] |
| 3.9 nM | 30.9 µL/min/mg | 69.2% | Cn1nc(N2C[C@@H](C(=O)N3CCC[C@@H](c4ccc(Cl)cc4)N(C(=O)C4CC4)CC3)[C@H](c3ccc(F)cc3F)C2)ccc1=O [Example 34] |
| 5.29 nM |  | 68.3% | CCC(=O)N1CCN(C(=O)[C@@H]2CN(c3ccc(=O)n(C)n3)C[C@H]2c2ccc(F)cc2F)CCC[C@H]1c1ccc(Cl)cc1 [Example 35] |
